Experiments:
Assay type in all cases: biochemical
[1] = molecular target: T1, ST6Gal-I (Rattus norvegicus, UniProt P13721); test: CMP-NeuAc / UMP-NeuAc formed by reverse sialylation as sialyl donor, ST6Gal-I activity; settings: acceptor 2.5 mM Galβ1,4GlcNAcβ-O-Bn; donor [3] 0.0625 mM, 8 mM 5′-CMP or 5′-UMP, ST3Gal-II plus ST6GalI, 4 h
T1 construct: purchased Calbiochem
T1 sequence (P13721 1-403): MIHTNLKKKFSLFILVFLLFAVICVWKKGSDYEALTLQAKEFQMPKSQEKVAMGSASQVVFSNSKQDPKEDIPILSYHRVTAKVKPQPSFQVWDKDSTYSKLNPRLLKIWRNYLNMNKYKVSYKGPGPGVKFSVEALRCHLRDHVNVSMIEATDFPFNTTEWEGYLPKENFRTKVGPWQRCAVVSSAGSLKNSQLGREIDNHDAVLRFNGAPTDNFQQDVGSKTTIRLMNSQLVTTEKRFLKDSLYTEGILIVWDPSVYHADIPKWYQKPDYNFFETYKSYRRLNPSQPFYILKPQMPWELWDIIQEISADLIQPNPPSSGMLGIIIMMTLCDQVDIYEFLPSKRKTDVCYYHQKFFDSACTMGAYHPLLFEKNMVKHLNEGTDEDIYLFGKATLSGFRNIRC

[2] = molecular target: T2, ST3Gal-II (Rattus norvegicus, UniProt Q11205); test: CMP-NeuAc / UMP-NeuAc formed by reverse sialylation as sialyl donor, ST3Gal-II activity; settings: acceptor 2.5 mM D-Fucβ1,3GalNAcα-O-Bn; donor [3] 0.0625 mM, 8 mM 5′-CMP or 5′-UMP, 4 h, blank subtracted
T2 construct: purchased Calbiochem
T2 sequence (Q11205 1-350): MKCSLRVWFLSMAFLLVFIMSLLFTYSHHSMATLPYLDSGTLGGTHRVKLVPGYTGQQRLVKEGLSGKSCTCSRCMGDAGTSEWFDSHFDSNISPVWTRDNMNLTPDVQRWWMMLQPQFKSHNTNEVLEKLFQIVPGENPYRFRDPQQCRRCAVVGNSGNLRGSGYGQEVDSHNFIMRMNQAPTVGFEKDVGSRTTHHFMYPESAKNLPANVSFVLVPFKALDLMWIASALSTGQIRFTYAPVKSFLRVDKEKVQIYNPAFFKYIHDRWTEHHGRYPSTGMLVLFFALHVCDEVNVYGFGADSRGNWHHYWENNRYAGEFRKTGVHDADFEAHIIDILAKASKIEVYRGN

[3] = molecular target: T3, ST3Gal-III (Rattus norvegicus, UniProt Q02734); test: CMP-NeuAc / UMP-NeuAc formed by reverse sialylation as sialyl donor, ST3Gal-III activity; settings: acceptor 2.5 mM 4-O-MeGalβ1,4GlcNAcβ-O-Bn; donor [3] 0.0625 mM, 8 mM 5′-CMP or 5′-UMP, ST3Gal-II plus ST3Gal-III, 4 h
T3 construct: purchased Calbiochem
T3 sequence (Q02734 1-374): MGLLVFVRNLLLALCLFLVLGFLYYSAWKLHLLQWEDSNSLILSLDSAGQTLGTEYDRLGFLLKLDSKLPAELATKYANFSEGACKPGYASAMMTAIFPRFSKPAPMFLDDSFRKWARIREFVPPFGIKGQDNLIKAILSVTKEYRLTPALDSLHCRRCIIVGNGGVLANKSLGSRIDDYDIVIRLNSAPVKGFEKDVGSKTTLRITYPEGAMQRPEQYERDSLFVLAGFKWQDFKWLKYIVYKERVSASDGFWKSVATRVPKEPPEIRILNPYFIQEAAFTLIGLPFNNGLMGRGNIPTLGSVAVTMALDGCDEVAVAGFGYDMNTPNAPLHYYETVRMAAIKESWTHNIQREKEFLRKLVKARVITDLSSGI

[4] = molecular target: T2, ST3Gal-II; test: Serial transfer of sialic acid from donor via 5′-CMP to acceptors (scheme-II); settings: 0.15 mM donor; 2 mM 5′-CMP with core-2 donors
Description: FIG. 3. Serial transfer of sialic acid using scheme-II was followed at increasing concentrations of acceptor D-Fucβ1,3GalNAcα-O-Bn. The donor used was either: i) 0.15 mM [9-^3H]CMP-NeuAc; or, ii) 0.15 mM [9-^3H]NeuAcα2,3Galβ1,3(4-FGlcNAcβ1,6)GalNAcα-O-Bn [9-^3H [2]] in the presence of 2.0 mM 5′-CMP, or iii) [9-^3H]NeuAcα2,3Galβ1,3(6-O-SulfoGlcNAcβ1,6)GalNAcα-O—Al [[9-^3H] [4]] in the presence of 2.0 mM 5′-CMP. In runs where [9-^3H [2]] was donor since both and [2] bind C18 cartridges, control runs were performed in the absence of D-Fucβ1,3GalNAcα-O-Bn to estimate the amount of [9-^3H]CMP-NeuAc formed under the experimental conditions. 80-85% of the radioactivity was transferred to CMP-NeuAc in these runs. The amount of CMP-NeuAc remaining in runs with was then subtracted from CMP-NeuAc radioactivity in the control run to determine the amount of sialylated. To complement this run, studies were also performed with [[9-^3H] […] In these runs, the amount of sialylated was determined by measuring radioactivity retained in the C18-cartridge. a. Equilibrium constant was 5.55 when CMP-[9-^3H]NeuAc was donor. b. ˜10-fold lower acceptor concentration was required for similar extents of reaction when CMP-[9-^3H]NeuAc was donor, compared to core-2 based donors and [4].
We tested the possibility that CMP-NeuAc formed above may be available for transfer to other acceptors using ST3Gal-II (scheme-II, FIG. 3). For this, three radiolabeled donors were prepared using methods described above: two were based on the mucin Core-2 structure ([[9-^3H] [1]] and [9-^3H]NeuAcα2,3Galβ1,3(6-O-SulfoGlcNAcβ1,6)GalNAcα-O—Al [[9-^3H] [4]]) while the third was based on the Globo glycolipid ([9-^3H] [3]). The transfer of [9-^3H]NeuAc from these sialylated donors to various T-hapten (Galβ1,3GalNAcα) and mucin core2-based glycoside acceptors in the presence of 5′-CMP and ST3Gal-II was assessed (Table III). All three […] of ST3Gal-II ([1], [3] and [4]) allowed formation of CMP-[9-^3H]NeuAc, and a diverse array of products.
The transfer of [9-^3H]NeuAc from [[9-^3H][1]] to D-Fucβ1,3GalNAcα-O-Bn in the presence of 5′-CMP and ST3Gal-II increased linearly in the first two hours and it reached saturation at 4 hours (FIG. 12), and thus the data in Table III (4 hours time point) represent equilibrium conditions. […] Further, diverse sialylated products can be formed using the same synthetic sialylated donor.
In order to compare the efficiency of individual reactions of scheme II, independent runs were performed where either 0.15 mM [9-^3H]CMP-NeuAc, 0.15 mM [9-^3H] [2] or 0.15 mM [9-^3H] [4] was the donor, and [5] was the acceptor (FIG. 3). 2 mM 5′-CMP was added in runs with core-2 donors and [4], and thus reverse sialylation of these molecules was feasible. Keq for transfer of sialic acid from CMP-NeuAc to [5] was 5.55 (FIG. 3a). […] (˜6 mM) or [9-^3H[4]] (˜6 mM). Thus, while the two-step mechanism results in lower conversion than CMP-NeuAc alone, the transfer of NeuAc still takes place at an appreciable rate.

Incorporation of [9-3H]NeuAc into the acceptor, ST6Gal-I activity [1]: 15066 CPM
Incorporation of [9-3H]NeuAc into the acceptor, ST3Gal-II activity [2]: 134122 CPM
Incorporation of [9-3H]NeuAc into the acceptor, ST3Gal-III activity [3]: 59531 CPM
amount of acceptor [5] required for comparable transfer [4]: 0.6 mM
SMILES: CC(=O)N[C@H]1[C@H]([C@H](O)[C@H](O)CO)O[C@](OP(=O)(O)OC[C@H]2O[C@@H](n3ccc(N)nc3=O)[C@H](O)[C@@H]2O)(C(=O)O)C[C@@H]1O [CMP-NeuAc, reference compound]

From patent US8278072B1, “Method for synthesis of sialylated products using reversible sialylation” (Health Research, Inc., priority 2007, dated 2012)
